From patent publication EP0250254A1, “Cis & trans stilbenes and their composition for the treatment of hypertension” (McNeilab, Inc., priority 1986, dated 1987)
Counter-ions that a name gives are not always drawn. Like-named read-outs stand apart in the source and are kept apart here. Marks after values point to notes of the source that are not given here.

How the values were obtained:
[1] = test system: spontaneously hypertensive rats; experiment: Spontaneously Hypertensive Rat (SHR) test, arterial pressure monitored via aortic cannula; assay type: in vivo; details: SH rats
Protocol: The activity of compounds of formula (I) for the treatment of hypertension was determined using the Spontaneously Hypertensive Rat (SHR) test as described below.
In this test, the arterial pressure of adult spontaneously hypertensive rats (Charles River) is monitored directly via an aortic cannula. The SH rats are anesthetized with an intravenous anesthetic (methohexital). The left carotid artery is isolated and cannulated. The tip of the cannula is advanced to the aorta and the cannula is exteriorized behind the neck at the level of the scapula. Animals are placed in individual cages and allowed to recover from the anesthetic and are kept unrestrained. The arterial cannula is connected to the pressure transducer which is attached to the recorder. The test compounds are administered to at least 3 rats at doses selected in the range of 0.l to l00 mg/kg of body weight by intraperitoneal (i.p.) or oral (p.o.) routes of administration. The arterial pressure and heart rate are monitored for a minimum of 22 hours. A test compound is considered to be active as an antihypertensive agent if the mean arterial pressure (MAp) indicates a fall of >l5 mm of Hg. Each animal serves as its own control.
The results of this test for compounds of formula (I). expressed as "Max Fall Bp" (Maximum Fall in Mean Arterial pressure) are shown in Table I.

[2] = test system: coronary arteries; experiment: Langendorff's isolated heart preparation, increase in coronary flow; details: read-out: EC30 (minimum concentration needed to elicit a 30 percent increase in coronary flow)
Protocol: In addition to their utility in the treatment of hypertension, the compounds of formula (I) are useful in the treatment of the symptoms of angina pectoris by virtue of their ability to dilate coronary arteries. Their activity was measured using the "Langendorff's isolated heart" preparation. This test has been described in "Pharmacological Experiments on Isolated Preparations", Staff of the Department of Pharmacology, University of Edinborough, 2nd Ed., Churchill Livingstone, N.Y., l970, pp. ll2-ll9. The test compounds were administered at concentrations of 3000, l000, 300, l00, 30, l0, 3, l and 0.3 nanomolar (l0⁻⁹ molar).
The minimum concentration (EC₃₀) needed to elicit a 30 percent increase in coronary flow is shown in Table I for compounds of the formula (I) with […].

[3] = dose 30 mg/kg of body weight p.o., salt form tested per footnotes

SMILES | Max Fall BP (Maximum Fall in Mean Arterial pressure) [1, 3] | EC30 ([2]; salt form tested per footnotes) [µM] | Max Fall BP (Maximum Fall in Mean Arterial pressure) ([1]; dose 10 mg/kg of body weight given i.p., tested as the fumarate salt) | Max Fall BP (Maximum Fall in Mean Arterial pressure) ([1]; dose 10 mg/kg of body weight p.o., tested as the chloride salt) | EC30 ([2]; tested as free base) [µM]
COc1ccc(/C=C\c2ccccc2)c(CC(C)NCCc2c(Cl)cccc2Cl)c1 (stereo not drawn) [Example 2d, N-[2-(2,6-Dichlorophenyl)ethyl]-5-methoxy-α-methyl-2Z-(2-phenylethenyl)benzeneethanamine (E)-2-Butenedioate (2:l)] | 18 (30) mm of Hg | 0.055 | – | – | –
COc1cc(CCNC(C)Cc2cc(OC)ccc2/C=C\c2ccccc2)cc(OC)c1 (stereo not drawn) [Example 3c, N-[2-(3,5-Dimethoxyphenyl)ethyl]-5-methoxy-α-methyl-2Z-(2-phenylethenyl)benzeneethanamine (E)-2-Butenedioate (2:l)] | – | 0.057 | 38 (10)^b mm of Hg | – | –
COc1ccc(/C=C\c2ccccc2)c(CC(C)NCCc2ccc(OC)c(OC)c2)c1 (stereo not drawn) [Example 4c, N-[2-(3,4-Dimethoxyphenyl)ethyl]-5-methoxy-α-methyl-2Z-(2-phenylethenyl)benzeneethanamine Hydrochloride] | 21 (30) mm of Hg | 0.002 | – | – | –
COc1ccc(/C=C/c2ccccc2)c(CCC(C)N(C)CCc2ccc(OC)c(OC)c2)c1 (stereo not drawn) [Example 5, N-[2-(3,4-Dimethoxyphenyl)ethyl]-5-methoxy-N,α-dimethyl-2E-(2-phenylethenyl)benezenepronanamine Hydrochloride] | 43 (30) mm of Hg | 0.012 | – | – | –
COc1ccc(/C=C\c2ccccc2)c(CCC(C)N(C)CCc2ccc(OC)c(OC)c2)c1 (stereo not drawn) [Example 6e, N-[2-(3,4-Dimethoxyphenyl)ethyl]-5-methoxy-N,α-dimethyl-2Z-(2-phenylethenyl)benzenepropanamine (E)-2-Butenedioate (2:l)] | 17 (30) mm of Hg | 0.019 | – | – | –
COc1ccc(/C=C/c2ccccc2)c(CCCN(C)CCc2ccc(OC)c(OC)c2)c1 [Example 7e, N-[2-(3,4-Dimethoxyphenyl)ethyl]-5-methoxy-N-methyl-2E-(2-phenylethenyl)benzenepropanamine Biscyclohexylsulfamate] | 16 (30) mm of Hg | 0.0004 | – | – | –
COc1ccc(/C=C/c2ccccc2)c(CC(C)NCCc2ccc(OC)c(OC)c2)c1 (stereo not drawn) [Example 8b, N-[2-(3,4-Dimethoxyphenyl)ethyl]-5-methoxy-α-methyl-2E-(2-phenylethenyl)benzeneethanamine Hydrochloride] | 77 (30) mm of Hg | 0.001 | – | 80 (10) mm of Hg | –
COc1ccc(/C=C/c2ccccc2)c(CC(C)NCCc2ccc(Cl)c(Cl)c2)c1 (stereo not drawn) [Example 9, N-[2-(3,4-Dichlorophenyl)ethyl)-5-methoxy-α-methyl-2E-(2-phenylethenyl)benzeneethanamine Hydrochloride] | 90 (30) mm of Hg | 0.024 | – | – | –
COc1cc(CCNC(C)Cc2cc(OC)ccc2/C=C/c2ccccc2)cc(OC)c1 (stereo not drawn) [Example 10, N-[2-(3,5-Dimethoxyphenyl)ethyl]-5-methoxy-α-methyl-2E-(2-phenylethenyl)benzeneethanamine (E)-2-Butendioate (3:5)] | 53 (30)* mm of Hg | – | – | – | 0.001
